Assay results as given in US6107070A, “Human manganese superoxide dismutase proteins” (University of Florida, priority 1998, dated 2000).
Numbering of substitutions follows the chain as printed. Read-outs that look alike come from different tables or passages of the source.

Assays:
[1] = target: T1, human manganese superoxide dismutase (hMn SOD), wild type, SEQ ID NO:2 (Homo sapiens, UniProt P04179); test: Decay of superoxide catalyzed by wild-type hMnSOD, pulse radiolysis; assay type: biochemical; details: obtained from Table 3 data and eqs 5-9 of Bull et al. (1991)
T1 construct: where it is then cleaved off leaving the mature protein
T1 sequence (P04179 25-222): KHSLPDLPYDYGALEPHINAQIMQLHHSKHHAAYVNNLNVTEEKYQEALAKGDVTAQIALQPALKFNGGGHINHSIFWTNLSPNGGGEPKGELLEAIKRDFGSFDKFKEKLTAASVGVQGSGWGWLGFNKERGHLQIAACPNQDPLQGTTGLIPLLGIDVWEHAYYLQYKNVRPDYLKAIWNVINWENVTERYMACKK
Protocol: Experiments were carried out at the Center for Fast Kinetics Research at the University of Texas at Austin using a 4-Mev van der Graaff accelerator. A single high-dose electron pulse was used to generate superoxide radical anions from oxygen in acqueous solutions containing 10 mM sodium formate as hydroxyl radical scavenger (Schwartz, 1981) and 50 μM EDTA in addition to buffer and enzyme. All pulse radiolysis experiments were carried out at 20 ° C. The dismutation of O2^- was followed spectrophotometrically from its absorbance at 250 nm (ε=2000M^1 cm^1, Rabani and Nielson, 1969) with a path length of 2.5 cm. Progress curves for each set of 6 to 9 experiments were averaged. Exposure to ultraviolet radiation was minimized by opening a mechanical shutter a fraction of a second before each pulse.

[2] = target: T1, human manganese superoxide dismutase (hMn SOD), wild type, SEQ ID NO:2; details: cited from earlier work
[3] = target: T1, human manganese superoxide dismutase (hMn SOD), wild type, SEQ ID NO:2; test: Disproportionation of superoxide by wild type hMnSOD, Example 3 (Tables 4 and 5), 20° C.; assay type: biochemical
Protocol: (§1) Experiments were based on the stabilization of KO2 in aprotic solvent and the subsequent large dilution of this solution by an aqueous solution of enzyme in a stopped-flow apparatus, as described by McClune and Fee (1978). KO2 was dissolved in a mixture of dimethyl sulfoxide and […] (2:1 by volume; Aldrich, spectrophotometric grade) with solubility of KO2 enhanced with 18-crown-6 (Valentine and Curtis, 1975). The stopped-flow spectrophotometer (Kinetic Instruments, Ann Arbor, Mich.) was capable of efficient mixing of this solution with an acqueous solution of enzyme in buffer with a dead time between 1.5 and 2.0 ms. One drive syringe (capacity 50 μl) contained the aprotic solution of O2. This was diluted fifty-fold by the contents of a second syringe (capacity 2.5 ml) which contained enzyme, EDTA, and buffer. The decay of superoxide in initial velocity experiments and progress curves was monitored by its absorption at 250 to 300 nm. Stopped-flow experiments were carried out at […]. Four or more kinetic traces were averaged to reduce noise. Steady-state parameters were obtained by least-squares analysis of such data (Leatherbarrow (1987) "Enzfitter: a nonlinear regression data analysis program for the IBM PC" Elsevier BIOSOFT, Cambridge).
(§2) In the present study, several novel hMnSOD proteins containing substitutions of His 30 (referring to the amino acid sequence of SEQ ID NO:2) were prepared by PCR site directed mutagenesis and purified by column chromatography, as described in the Materials and Methods section above, and as also described by Hsu et al. (1996) J. Biol. Chem. 271: 1768; and Hsieh et al. (1998) Biochemistry 37: 4731. In particular, His 30 was substituted with each of Ala, Asn, Ser and Gln. The resulting novel hMnSOD proteins containing a His 30 substitution were then assayed for enzymatic activity and product inhibition at 20° C. by measuring the absorbance of superoxide at 250 nm using stopped-flow spectrophotometry, as described above in the Materials and Methods section. […]

[4] = target: T2, human manganese superoxide dismutase (hMn SOD) variant H30N (His 30 replaced by Asn) (Homo sapiens, UniProt P04179, H54N); test: Disproportionation of superoxide by H30N hMnSOD, stopped-flow, 20° C.; assay type: biochemical; details: pH 9.6, 20° C.
T2 construct: as a mature protein tagged with an extra Met at the amino terminus; made in house
T2 sequence (P04179 25-222 H54N): T1 sequence (P04179 25-222) with H30N
Protocol: as §1, §2

[5] = Table 1, pulse radiolysis, 20° C., pH 9.6 (Hsu et al., 1996)
[6] = Table 2, KINSIM fit of FIG. 8 scheme to pulse radiolysis data, 20° C., pH 9.6
[7] = Table 3, KINSIM fit to pulse radiolysis data, 20° C., pH 9.6
[8] = Table 4, 20° C., pH 9.4 per footnote

[O]O [superoxide]
Km [1]: 50 µM | kcat [2, 5]: 40 ms^-1 | kcat /km [2, 5]: 8e+08 M⁻¹ s⁻¹ | k1 [2, 6]: 2e+09 M⁻¹ s⁻¹ | k3 [2, 6]: 2e+09 M⁻¹ s⁻¹ | k4 [2, 6]: 80000 s⁻¹ | k-1 [2, 6]: 20000 s⁻¹ | k-3 [2, 6]: 20000 s⁻¹ | k-4 [2, 6]: 300 M⁻¹ s⁻¹ | k-5 ([2]; Table 2, KINSIM fit, dead-end complex, 20° C., pH 9.6): 130 s⁻¹ | k5 ([2]; Table 2, KINSIM fit, formation of dead-end complex, 20° C., pH 9.6): 20000 s⁻¹ | k1 [2, 7]: 20000 s⁻¹ | k3 [2, 7]: 20000 s⁻¹ | k4 [2, 7]: 300 M⁻¹ s⁻¹ | k5 [2, 7]: 130 s⁻¹ | k-1 [2, 7]: 2e+09 M⁻¹ s⁻¹ | k-3 [2, 7]: 2e+09 M⁻¹ s⁻¹ | k-4 [2, 7]: 80000 s⁻¹ | k-5 [2, 7]: 2 × 10^4 | k2 ([2]; Tables 2 and 3, KINSIM fit of FIG. 8 scheme to pulse radiolysis data, 20° C., pH 9.6): 80000 s⁻¹ | kcat /km (diffusion controlled) ([2]; approximate value): ~10^9 M^-1 s^-1 | kcat /Km ([2]; pH 9.6, 20° C. (Hsu et al., 1996)): 8e+08 M⁻¹ s⁻¹ | kcat [3, 8]: 40 ms^.1 | kcat /Km [3, 8]: 800 μM^.1 S^.1 | ko /[E] (rate constant for the zero-order region of catalysis) ([3]; Table 5, pH 9.6, 20° C.): 500 S^.1 | kcat ([4]; Table 4): 2.9 ms^.1 | kcat /Km ([4]; Table 4): 91 μM^.1 S^.1 | ko /[E] (rate constant for the zero-order region of catalysis) ([4]; Table 5): 1,300 S^.1
